Measurements published in patent publication US9732059B2, “Methods of use of cyclic amide derivatives to treat schizophrenia” (Minerva Neurosciences, Inc., priority 2010, dated 2017).
Entries after “also recorded” stand apart in the source; their conditions may differ.

What was measured:
dopamine = conditions: known; cited from earlier work
[1] = system: patients with DSM-IV schizophrenia; experiment: Phase 2 clinical study: safety (extrapyramidal symptoms, adverse events, QT interval); format: in vivo, human
Method: (§1) The study was designed to test the therapeutic efficacy of the compound of formula II on all dimensions of schizophrenic disease (E.g., positive, negative, and general symptoms, cognition, sleep, mood and anxiety). The study also examined the safety of the administered doses of the compound of formula II (also referred to herein as CYR-101), including heart repolarization (i.e., QT interval), weight change, adverse events, prolactin, and extrapyramidal symptoms).
(§2) CYR-101 8 mg oral sustained release (SR) tablet, oral administration of 1, 2, or 4 tablets (8, 16 or 32 mg of CYR-101) was administered twice daily in fed condition. During the dose adjustment period, CYR-101 was administered orally, twice a day in the morning and in the evening, at the daily dose of 16 mg for two days, then titrated up every two days to 32 mg and 64 mg respectively. During the fixed-dose period, the optimal adjusted dose evaluated for each patient or the maximum daily dose of 64 mg of CYR-101 was administered. In one aspect of the study, the dosage of compound was titrated up to 32 mg b.i.d.
4. Safety: 12-lead ECG, adverse event (AE) recording, vital signs, physical examination, weight and waist circumference, safety lab tests, evaluation of extra-pyramidal symptoms (measured by Simpson and Angus scale), and prolactin levels.
3. Safety: Descriptive statistics on the safety set for extent of exposure, adverse events recording, safety lab tests, 12-lead ECG parameters, vital signs, and physical examination, weight and waist circumference, extra-pyramidal symptoms, prolactin levels.

schizophrenic patients = experiment: Polysomnographic (PSG) sleep recording in a sub-group of patients; format: in vivo, human
Source text: 3. Exploratory: In a sub-group of patients, polysomnographic sleep continuity and sleep architecture parameters.
2. Secondary efficacy variables: Same method for the PANSS total and sub-scores at three months of treatment, BACS, DAI-10, MADRS, HAMA, and PSQI on the Full Analysis Set (FAS). Last Observation Carried Forward (LOCF) procedure used for missing data imputation. Analysis of variance (ANOVA) for the Readiness for Discharge Questionnaire (RDQ) at 14 days. Wilcoxon rank sum test for CGI-S. Descriptive statistics and graphical presentation on changes from baseline on FAS. Efficacy analyses (ANCOVA) additionally performed on the Per Protocol Set. Supportive exploratory analysis on PANSS using longitudinal, likelihood-based, mixed-effect model on FAS without missing data imputation. On a subtest of patients, polysomnographic (PSG) recording parameters analyzed using descriptive statistics and ANCOVA on changes from baseline.
Polysomnographic recordings took place in a sub-group of patients. Sleep was recorded from 11:00 pm to 7:00 am on D-1 after a habituation night (baseline condition) and on D14. Analyses regarding sleep continuity, stage distribution, and stage profile parameters were exploratory. The treatment differences on each of these sleep parameters were analyzed using D14 values with ANOVAs and ANCOVAs with country and treatment as main effects and baseline as covariate.
Among the 33 patients who had performed a PSG recording at visit lead-in day-1, 19 received placebo and 14 received the study treatment. Among these, […] experienced technical problem and/or insomnia during baseline and/or treatment night and were therefore excluded from the analysis. Finally, 20 patients were included in the analysis set of ANOVA and 19 patients were included in the analysis set of ANCOVA, and according to the SAP, only ANCOVA results were taken into account and are further discussed in the next sections.

[2] = system: patients with DSM-IV schizophrenia; experiment: Phase 2 double-blind, randomized, placebo-controlled proof of concept study: efficacy scales (PANSS, CGI-S, DAI-10, PSQI, BACS, MADRS, HAMA); format: in vivo, human
Method: A study was conducted using the compound of formula II, to examine the efficacy on schizophrenia and treatment of symptoms of schizophrenia. The study was a multi-center, inpatient and ambulatory, phase 2, double-blind, randomized, placebo-controlled proof of concept study of the compound of formula II in patients with DSM-IV schizophrenia. The study used 21 centers across three different countries.
as §1
The study was conducted for a time period of three months.
The objectives of the study included the following: • 1. Evaluate the efficacy versus placebo of CYR-101 on global PANSS score and sub-scores after one month (28 days+/− 2 days) of treatment • 2. […] Evaluate the efficacy versus placebo of CYR-101 as assessed by the CGI-S after one and three months of treatment • 4. Evaluate subjective efficacy in patients of CYR-101 versus placebo as assessed by the Drug Attitude Inventory-10 (DAI-10) after one and three months of treatment • 5. Evaluate subjective sleep quality as assessed by Pittsburgh Sleep Quality Index (PSQI) after three month of treatment • 6. Explore the efficacy versus placebo of CYR-101 on cognitive function as measured by BACS (Brief Assessment of Cognition in Schizophrenia) scale after one and three months of treatment • 7. Evaluate the efficacy versus placebo of CYR-101 in depressive symptoms as measure by the Montgomery-Asberg Depression Rating Scale (MADRS) total score after one month of treatment • 8. Evaluate the efficacy versus placebo of CYR-101 in anxiety as measured by the Hamilton Anxiety Scale (HAMA) total score after one month of treatment • 9. Assess cardio-vascular safety (particularly ventricular repolarisation as assessed by QT/QTc interval measurements) of CYR-101 compared with placebo • 10. Assess the global safety and tolerability of CYR-101 compared with placebo • 11. Determine the pharmacokinetics of CYR-101 in schizophrenic patients
as §2
During the lead-in period, oral administration of 1 placebo SR tablet was conducted twice a day for 3 days. During the dose adjustment and fixed-dose periods, oral administration of 1, 2, or 4 placebo SR tablets was used twice daily as performed for the test product.
The resulting data was analyzed one of three ways: 1.) Safety set; 2.) Full analysis set, with each patient having at least one PANSS evaluation after treatment initiation included in the efficacy analysis. The LOCF method is used; and 3.) Per protocol set, where for certain analyses, all patients having completed three months of treatment are included. ANCOVA followed by a contrast analysis at each time point were applied and in some cases, a non-parametric Wilcoxon test was used.
1. Primary: PANSS total score and sub-scores, after one month of treatment
2. […]

sigma 2 receptor = sigma 2 receptor (Homo sapiens, UniProt Q5BJF2); conditions: cited from earlier work
sigma 2 receptor, sequence (Q5BJF2 whole entry, species assumed): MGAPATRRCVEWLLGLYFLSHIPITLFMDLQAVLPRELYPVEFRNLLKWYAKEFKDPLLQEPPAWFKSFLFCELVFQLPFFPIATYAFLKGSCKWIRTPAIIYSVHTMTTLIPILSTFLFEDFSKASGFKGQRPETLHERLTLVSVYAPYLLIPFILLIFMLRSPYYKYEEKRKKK

5-HT2A = 5-HT2A (Homo sapiens, UniProt P28223); conditions: known: dual 5-HT2A/sigma 2; cited from earlier work
5-HT2A, sequence (P28223 whole entry, species assumed): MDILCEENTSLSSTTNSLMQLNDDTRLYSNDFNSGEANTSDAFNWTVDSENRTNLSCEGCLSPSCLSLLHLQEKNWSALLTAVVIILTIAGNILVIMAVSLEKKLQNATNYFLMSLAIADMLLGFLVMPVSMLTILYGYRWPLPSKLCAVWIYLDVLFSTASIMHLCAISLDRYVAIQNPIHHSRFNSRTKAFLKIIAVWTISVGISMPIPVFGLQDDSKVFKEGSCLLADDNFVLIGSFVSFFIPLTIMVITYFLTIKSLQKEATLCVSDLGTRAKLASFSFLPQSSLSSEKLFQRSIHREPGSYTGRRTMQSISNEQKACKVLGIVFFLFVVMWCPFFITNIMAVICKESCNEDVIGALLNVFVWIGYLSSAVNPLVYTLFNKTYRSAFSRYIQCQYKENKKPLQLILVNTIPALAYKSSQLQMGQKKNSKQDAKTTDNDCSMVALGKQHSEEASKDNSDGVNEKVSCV

[3] = D14, ANCOVA contrast, not statistically significant
[4] = D14, ANCOVA, no significant treatment effect
[5] = D14, not statistically significant

O=C(CN1CCC(CN2Cc3ccccc3C2=O)CC1)c1ccc(F)cc1 [CYR-101, 2-[[1-[2-(4-Fluorophenyl)-2-oxoethyl]piperidin-4-yl]methyl]isoindolin-1-one]
Dopamine binding properties (dopamine): devoid of dopamine binding properties | Increase in the QT interval ([1]; doses up to 32 mg b.i.d., stable over time, limits e.g. 10-15 milliseconds or less): did not cross clinically acceptable limits | Emergence or worsening of extrapyramidal symptoms, CYR-101 vs placebo ([1]; human, in vivo): no significant difference | Number of SAE in the active treatment group ([1]; unlikely related to CYR-101 based on the patient history): one | Decrease of sleep efficiency index (SEI) compared to placebo (schizophrenic patients; [3]): 2.4% | Decrease of total sleep time (TST) compared to placebo (schizophrenic patients; [3]): 13.7 min | Increase of duration of wake after sleep onset (WASO) compared to placebo (schizophrenic patients; [3]): 26.6 min | Latency to persistent sleep (schizophrenic patients; [4]): trend of improvement | Sleep onset latency (schizophrenic patients; [4]): trend of improvement | REM sleep latency contrast (schizophrenic patients; D14, non significant): appeared later | SWS latency contrast (schizophrenic patients; D14, non significant): appeared sooner | Decrease of REM sleep in SPT2 and in SPT3 (schizophrenic patients; [5]): 3.03% | Increase of REM sleep in the first third of SPT (REM_SPT1) (schizophrenic patients; [5]): 1.4% | Slow Wave Sleep (SWS) compared to placebo (schizophrenic patients; [5]): increased | Stage 1 (ST1) compared to placebo (schizophrenic patients; [5]): decreased | Stage 2 (ST2 in min) compared to placebo (schizophrenic patients; [5]): decreased | Total Time Awake (TTA) compared to placebo (schizophrenic patients; [5]): increased | nonREM sleep (NREM) compared to placebo (schizophrenic patients; [5]): increased | Decrease of SWS during the last third of SPT (SWS-SPT3) compared to placebo (schizophrenic patients; D14, p<0.05): 22.1% | Increase of SWS in the first third of SPT (SWS-SPT1) compared to placebo (schizophrenic patients; D14, p<0.05): 23.6% | REM sleep (REM) compared to placebo (schizophrenic patients; D14, significant only for REM-TST (p<0.05)): decreased | PANSS general psychopathology sub-score, treatment difference vs placebo ([2]; D28, FAS): no treatment difference | PANSS positive sub-score, treatment difference vs placebo ([2]; D28, FAS): no treatment difference | PANSS total score, change from baseline, treatment difference vs placebo ([2]; D28, FAS): no treatment difference | PANSS negative sub-score decrease ([2]; D28, FAS, p<0.01): −1.9 | PANSS general psychopathology sub-score, treatment difference vs placebo ([2]; D28, PPC): no treatment difference | PANSS positive sub-score, treatment difference vs placebo ([2]; D28, PPC): no treatment difference | PANSS total score, treatment difference vs placebo ([2]; D28, PPC): no treatment difference | PANSS negative sub-score decrease ([2]; D28, PPC, p<0.0010): −4.7 | PANSS general psychopathology sub-score, treatment difference vs placebo ([2]; D84, FAS): no significant treatment difference | PANSS positive sub-score, treatment difference vs placebo ([2]; D84, FAS): no significant treatment difference | PANSS total score, change from baseline, treatment difference vs placebo ([2]; D84, FAS): no significant treatment difference | PANSS negative sub-score point estimate decrease ([2]; D84, FAS, p<0.01): −2.3 | PANSS total score vs placebo ([2]; D84, PPC, obvious switch on D56): favorable trend of CYR-101 over placebo | PANSS negative sub-score improvement ([2]; D84, PPC, p<0.001, treatment difference vs placebo p=0.0581): −5.8 | PANSS positive sub-score vs placebo ([2]; D84, PPC, switch between D56 and D70): favorable trend of CYR-101 over placebo | PANSS general psychopathology sub-score vs placebo ([2]; D84, PPC, switch on D70): favorable trend of CYR-101 over placebo | Cognitive performances assessed by BACS vs placebo ([2]; FAS): no differences between the placebo group and the CYR-101 group, except for the Token motor task | MADRS Total change score, difference vs placebo ([2]; FAS and PPC, D28 and D84, reduction in both groups): not statistically significant | CGI-S score, difference between CYR-101 and placebo ([2]; FAS, D28 and D84): no significant difference | HAMA total score change from baseline ([2]; FAS, D28 and D84, non statistically significant): slight HAMA total score reduction | HAMA total score reduction ([2]; PPC, D28, p=0.2920): −1.0 | BACS Token motor task, list learning task, verbal fluency vs placebo ([2]; PPC, D84, descriptive data, not statistically significant): slight difference in favor of CYR-101 group; also recorded: slight difference in favour of CYR-101 group | HAMA total score reduction ([2]; PPC, D84, p=0.0642): −2.9 | CGI-S mean difference score ([2]; PPC, from D56 until D84): non significant but an interesting switch in favor of CYR-101 | Improvement of negative symptoms, onset ([2]; course of treatment): observed immediately | Improvement of positive symptoms, onset ([2]; course of treatment): did not improve until after the first four weeks of treatment | Duration of improvement in both positive and negative symptoms ([2]; in vivo): continued for more than twelve weeks | Effect on cognition in schizophrenic patients ([2]; in vivo): positive effect on cognition | DAI-10 total score change from baseline, difference between groups ([2]; to D28 and D84, FAS and PPC): no statistically significant difference | Receptor binding selectivity (sigma 2 receptor): sigma 2-selective receptor binding | Mode of action at 5-HT2A (5-HT2A): antagonist
